In PubChem BioAssay (NCI) one finds TGI and GI50 data, which are given here for ten compounds.

Common to all, as to assay: NCI-60 cell line screen, 48 h
Assay [1] concerns ACHN renal.
Assay [2] concerns CAKI-1 renal.
Assay [3] relates to HS 578T breast.
Assay [4] has as its system SW-620 colon.
Assay [5] concerns SF-295 CNS.
In assay [6] the test system is IGROV1 ovarian.
In assay [7] the test system is HCT-116 colon.
Assay [8] deals with SF-268 CNS.
The subject of assay [9] is LOX IMVI melanoma.
Assay [10] has as its system RXF 393 renal.

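Following 48 hours of exposure in 96-well plates, responses at five concentrations were used to interpolate endpoints linearly. GI50 marks 50% less growth. The concentration for full growth arrest is given as TGI.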

On to `C=C(NC(=O)C(=C)NC(=O)c1csc(C2=NC3c4csc(n4)C4NC(=O)c5csc(n5)C(C(C)(O)C(C)O)NC(=O)C5CSC(=N5)/C(=C/C)NC(=O)C(C(C)O)NC(=O)c5csc(n5)C3(CC2)NC(=O)C(C)NC(=O)C(=C)NC(=O)C(=C)NC(=O)C(C(C)C)NC2C=Cc3c(C(C)O)cc(nc3C2O)C(=O)OC4C)n1)C(N)=O` (stereo not drawn), for which the TGI in assay [1] was > 61.2 µM; in assay [2], > 87.2 µM; in assay [3], > 100 µM; in [4], > 100 µM; in assay [5] it was > 100 µM; in [6], 58.9 µM. The TGI was 2.64 µM in assay [7], > 100 µM in assay [8] and > 61.3 µM in assay [9].
For `COc1ccc(C2CC(c3cc4c(C)c(C(=O)c5ccccc5)oc4cc3O)=Nc3ccccc3S2)cc1OC` (stereo not drawn), the TGI in [1], in assay [2], in assay [3], in assay [4], in assay [5] and in [6] was > 100 µM each time. For the same compound, the TGI in assay [7], in assay [8] and in assay [9] was > 100 µM in each case.
As for `Oc1ccc(-c2cc(-c3c(O)cc(O)cc3O)on2)cc1`, the TGI in assay [1], in assay [2], in assay [3], in [4], in assay [5] and in assay [6] was > 100 µM each time. The TGI in [7], in assay [8] and in assay [9] was > 100 µM throughout.
In the case of `O=S(=O)(O)c1ccc(NN(c2c(O)ccc3ccccc23)S(=O)(=O)O)cc1`, the TGI in assay [1], in assay [2], in assay [3], in assay [4], in [5] and in assay [6] was > 100 µM throughout. Further, the TGI in [7], in assay [8] and in assay [9] was > 100 µM each time.
With `COc1ccc(C[C@@H]2CN(C(=O)c3ccccc3)[C@H](Cc3ccc(O)cc3)CN2C(=O)c2ccccc2)cc1Br`, the TGI in assay [1], in assay [2], in [3], in assay [4], in assay [5] and in [6] was > 100 µM throughout. The TGI in assay [7], in assay [8] and in assay [9] was > 100 µM in each case.
On to `COc1ccc(-c2nc3ncccn3c2-c2ccc(S(C)=O)cc2)cc1` (stereo not drawn), for which the TGI in assay [1] was > 100 µM; in assay [2], 65.4 µM; in assay [3], > 100 µM; in assay [4], > 100 µM; in assay [5] it was > 100 µM; in [6] it was > 100 µM. Moreover, the TGI in [7], in assay [8] and in assay [9] was > 100 µM throughout.
Regarding `COC(=O)OC[C@H]1O[C@@H](n2cc(C)c(=O)[nH]c2=O)CC1OC(=O)OC` (stereo partly drawn), the TGI in assay [1], in assay [3], in [4], in [5], in assay [6] and in assay [10] was > 100 µM each time. For the same compound, the TGI in [8] and in assay [9] was > 100 µM throughout.
Turning to `NCCC1(N)CCNCC1`, the TGI in assay [1], in assay [2], in [3], in [4], in assay [5] and in [6] was > 100 µM each time. Further, the TGI in assay [7], in [10] and in [8] was > 100 µM each time.
`Oc1c(OCc2nnc(CCCCCCCCc3nnc(COc4ccc5ccccc5c4O)n3Nc3ccccc3)n2Nc2ccccc2)ccc2ccccc12`: the TGI in assay [1] came to 68.7 µM; in [2], 13.8 µM; in [3], 22.2 µM; in assay [4], 24.6 µM; in assay [5], 13.9 µM; in [6], 31.5 µM. Moreover, the TGI in [7] was determined as 24.8 µM; in [10] it was 30.9 µM; in assay [8], 27 µM.
As to `O=C(NCc1cn(Cc2cccc(Oc3ccccc3)c2)nn1)c1cccnc1Nc1ccccc1`, the GI50 in assay [1] is 5.67 µM; in assay [2], 5.45 µM; in assay [3] it was 3.68 µM; in [4] it was 3.97 µM; in assay [5] it was 3.69 µM; in assay [6] it was 5.86 µM. The GI50 was 3.4 µM in [7], 3.22 µM in [8] and 4.54 µM in assay [9]. Besides, the TGI in assay [1], in [2], in assay [3], in assay [4], in [5] and in assay [6] was > 100 µM each time. In addition, the TGI in assay [7] is 23.5 µM; in assay [8], 37.5 µM; in assay [9], > 100 µM.
